According to patent EP3086659B1, “NUTRITIONAL COMPOSITION FOR THE PREVENTION AND TREATMENT OF COPD AND RELATED SYMPTOMS” (Thompson S.r.L., priority 2013, dated 2015):
Like-named read-outs stand apart in the source and are kept apart here.

Key:
[1] = Clinical study on volunteers: blood (serum) concentration and pharmacokinetic parameters of curcumin after oral administration; assay type: in vivo, healthy volunteers
Experimental: Subsequently, up to 1 h, a rapid decrease is observed followed by a gradual decline to 0 in the next three hours. The following Table lists the pharmacokinetic parameters (mean ± SEM). Table
The maximum serum concentration, when administered alone, was just 0.006 µg/ml 1 hour after administration, while in combination with piperine, the maximum serum concentration (Cmax) had increased to 0.18 µg/ml and was reached earlier at 0.75 h from the administration. The volume of distribution (Vd) and the total clearance value (CI) were not calculated for curcumin administered alone as it was not possible to determine the serum levels in most of the measurements of the greater number of subjects. […] 4 and in the preceding table reflect an increase in the bioavailability of curcumin equal to 2000% in the subjects treated with the combination of curcumin and piperine.

[2] = system: glutathione reductase (GRX); assay: Glutathione reductase (GRX) mRNA expression by quantitative real-time PCR compared to GAPDH; assay type: cell-based, Human; settings: 15 µM, 6 h
Source text: (§1) Curcumin (CUR), N-acetyl-L-cysteine (NAC) and glutathione in reduced (GSH) and oxidised (GSSG) form and other reagents were supplied by Sigma. Human alveolar epithelial cells A549 were purchased from American Type Culture Collection (ATCC CCL-185). […] GRX is a key enzyme in the regulation of the cellular oxidative state, being responsible for the regeneration of GSH from GSSG and in the regeneration of dehydroascorbate.

[3] = system: Nrf2; assay: Nrf2 mRNA expression by quantitative real-time PCR compared to GAPDH; assay type: cell-based, Human; settings: 15 µM, 6 h
Source text: as §1

[4] = system: Nrf2; assay: Expression of Nrf2 protein in nuclear extracts (Western blot); assay type: cell-based, Human; settings: 15 µM, after one hour up to 12h, three independent Western blots
Source text: Curcumin (CUR), N-acetyl-L-cysteine (NAC) and glutathione in reduced (GSH) and oxidised (GSSG) form and other reagents were supplied by Sigma. Human alveolar epithelial cells A549 were purchased from American Type Culture Collection (ATCC CCL-185). […] The combination of NAC and CUR induced a slightly higher level of Nrf2 expression.

[5] = system: Human alveolar epithelial cells A549; assay: Determination of intracellular glutathione (GSH and GSSG), glutathione reductase-recycling analysis; assay type: cell-based; settings: different concentrations (0-50 µM), 6 hours
Experimental: Curcumin (CUR), N-acetyl-L-cysteine (NAC) and glutathione in reduced (GSH) and oxidised (GSSG) form and other reagents were supplied by Sigma. Human alveolar epithelial cells A549 were purchased from American Type Culture Collection (ATCC CCL-185). Levels of reduced (GSH) and oxidised (GSSG) Glutathione were measured after exposure of the cells for 6 hours to curcumin, NAC and curcumin and NAC association (ratio 1/1) using the method already described in Calabrese et al. 1998; Motterlini et al. 2000a). Cells harvested in cold PBS were frozen-thawed three times and an aliquot of this suspension was added to a buffer solution containing […] of EDTA and 10 mM of 5,5-dithiobis- (2-nitrobenzoic acid). The total glutathione was measured by spectroscopy (optical density of 412 nm) using the glutathione reductase-recycling analysis. In order to determine the quantity of GSSG, an aliquot of the cell suspension was added to an equal volume of buffer containing EDTA and N-ethylmaleimide (10 mM). The sample was mixed and centrifuged and the supernatant was passed through a Sep-Pak C18 cartridge (Waters, Milford, MA) to remove the excess of N-ethylmaleimide. […] Intracellular glutathione was determined by comparison with a standard curve obtained with standard solutions of GSH and GSSG and was expressed as nmoles/mg protein. […]

[6] = system: HO-1; assay: HO-1 mRNA expression by quantitative real-time PCR compared to GAPDH; assay type: cell-based, Human; settings: 15 µM, 6 h
Source text: as §1

Tmax ([1]; human, 2 g, serum curcumin, oral administration, healthy volunteers (n = 8), mean ± SEM) [h]	Cmax ([1]; human, 2 g, serum curcumin, oral administration, healthy volunteers (n = 8), mean ± SEM, read-out: Cmax) [ng/mL]	Serum levels of curcumin ([1]; oral, 2 g of curcumin alone or with 20 mg of piperine, measurements up to 0.75 h)	Cmax ([1]; serum curcumin, oral administration, healthy volunteers (n = 8), mean ± SEM) [ng/mL]	AUC(0-∞) ([1]; serum curcumin, oral administration, healthy volunteers (n = 8), trapezoidal method, mean ± SEM) [µg/h/mL]	glutathione reductase (GRX) mRNA [2]	Structure (SMILES)	Nrf2 mRNA [3]	expression of the protein Nrf2 in the nucleic extracts [4]	levels of GSSG [5]	intracellular GSH ([5]; dose-dependent)	HO-1 mRNA [6]
1	6	very low or undetectable	6 ± 5	0.004		COc1cc(/C=C/C(=O)CC(=O)/C=C/c2ccc(O)c(OC)c2)ccc1O [Curcumin, (1E, 6E)-1,7-bis-(4-hydroxy-3-methoxyphenyl)-epta-1,6-dien-3,5-dione]					
					able to induce GRX significantly	CC(=O)N[C@@H](CS)C(=O)O [NAC, N-acetyl-L-cysteine]	not active	not able to induce an increase	did not increase	increase of GSH	not active
